Series [1] deals with H/S cells. Briefly: colony formation and replating assay. Type of series: cell-based, mouse. An excerpt: (§1) The inventors next sought to characterize the functional consequences of Syk overexpression in the context of Hoxa9-driven leukemias. For this purpose, the consequences of a lentiviral overexpression of human SYK (hSYK) in H cells in vitro and in vivo were examined. […] While Hoxa9 alone is sufficient to enable replating, both Meis1 and hSYK enhanced replating efficiency.

For series [2], the system named is CD34+ progenitor cells isolated from healthy donors. Briefly: relative viability of CD34+ bone marrow cells from healthy donors. The class given is cell-based, human.
Description: Cells were treated for 24 h and DMSO was used as a control. (J) Relative viability of CD34+ bone marrow cells from healthy donors.
For series [3], the system named is H cells. Kind of series: colony formation and replating assay. The class given is cell-based, mouse.
Description: (§2) To elucidate the molecular mechanisms underlying Meis1's contribution to leukemogenesis, a retroviral transplantation model was employed in which lineage-depleted mouse bone marrow cells were transduced with an MSCV-Hoxa9-PGK-neo construct, alone or in combination with an MSCV-Meis1-IRES-YFP construct that induced a 22-fold overexpression of Meis1. As reported by previously, the transformed cells could be cultured in vitro in the presence of IL3/IL6/SCF and expressed the expected immunophenotype characterized by the myeloid markers Mac-1 and Gr-1 as well as c-Kit (Pineault et al., 2005; Wang et al., 2005). When transplanted into irradiated recipient mice, cells transduced with Hoxa9 (H) or Hoxa9/Meis1 (H/M) gave rise to leukemia resulting in a median overall survival of 114 days and 41 days, respectively (p<0.001; FIG. 1A). This difference in survival is in accordance with previously published results and reflects the aggressiveness of Hoxa9/Meis1-driven AML observed in patients (Kroon et al., 1998).
as §1

The test system of series [4] is H/M cells. Briefly: colony formation and replating assay. Type of series: cell-based, mouse.
Description: as §2
The inventors next sought to characterize the functional consequences of Syk overexpression in the context of Hoxa9-driven leukemias. […]
To test whether the enhanced Syk signaling observed in H/M cells could be exploited therapeutically, the effects of Syk inhibitors and of an shRNA-mediated knockdown of Syk in H/M cells, in vitro and in vivo were analyzed.

In series [5] the test system is H/M cells. Briefly: time-lapse microscopy and single-cell tracking. Type of series: cell-based, mouse. The settings on record: compared with DMSO-treated cells, tracked over more than 50 hours. On the procedure:
(§3) The effect of Syk inhibition in H and H/M cells was further examined by monitoring the fate of individual cells and their progeny by time-lapse microscopy and single-cell tracking (Rieger et al., 2009). This allowed to track hundreds of H and H/M cells over more than 50 hours in real time and to record their history across cell generations. […] In addition, the inventors knocked down Syk in vivo by transplanting mice with cells that were either transduced with the doxycycline-inducible lentiviral Syk shRNAs or with control shRNAs and treating them with doxycycline for 43 days. Knockdown of Syk prolonged the survival of mice transplanted with H/M cells from a median time of 40.5 days in controls to a median of 103 days (p<0.001) (FIGS. 7C and 7D). Furthermore, mice transplanted with H/M or H cells were treated with the oral Syk inhibitor R788, a prodrug of R406.

In series [6] the test system is H cells. Briefly: time-lapse microscopy and single-cell tracking. The class given is cell-based, mouse. The note with it: compared with DMSO-treated cells, tracked over more than 50 hours. On the procedure: as §3
Series [7] deals with H cells. Kind of series: treatment of mice transplanted with H cells. The class given is in vivo. The source says: (§4) FIG. 7. Meis1 sensitizes Hoxa9-driven leukemia to Syk inhibition. (A) SYK protein expression in H/M cells transfected with either a control shRNA (GL2) or two shRNAs targeting SYK. Actin was used as loading control for relative protein quantification. (B) Percentage of BFP-positive shRNA-expressing cells relative to BFP-negative shRNA-negative cells at the times indicated (mean±SD, normalized to day 0). (C) Same as (A), before and after five days of doxycycline (dox) treatment in vivo. (D) Kaplan-Meier survival curves of mice transplanted with H/M cells and treated with doxycycline for 43 days to express non-specific control and Syk-specific shRNA (n=8). p-value is from a Mantel-Cox test. (E) Percentage of YFP-positive cells from peripheral blood of mice transplanted with H (left) or H/M (right) cells after treating for 7 days with R788 or placebo. Measurements were taken at the indicated time points. The black line connects median values. (F) Kaplan-Meier survival curves of mice transplanted with either H or H/M cells and treated for 20 days with R788 or placebo (n=11). p-value is from a Mantel-Cox test. (G) Relative HOXA9 and MEIS1 mRNA expression in MV4-11 and KG1 cell lines, and in patient-derived AML cells as measured by qPCR, normalized to GAPDH expression (mean±SD, n=3). […] Actin was used as loading control for relative protein quantification. avg, average. […]

The subject of series [8] is H/M cells. Kind of series: treatment of mice transplanted with H/M cells. The class given is in vivo.
Description: as §4

For the compound `COc1cc(Nc2ncc(F)c(Nc3ccc4c(n3)NC(=O)C(C)(C)O4)n2)cc(OC)c1OC` [R406], the replating efficiency entry in series [1] and in series [4] was “decreased replating efficiency” each time. In addition, the viability entry in series [2] is on record as “did not affect the viability”. Further, the “colony formation and replating efficiency” value in series [3] is on record as “moderately affecting”. The “colony formation potential and replating efficiency” value in series [4] is listed as “significantly reduced”. The values for the cell death entry in series [5] and in series [6] were “significant increase in cell death” and “not significantly affected”, respectively.

As to `COc1cc(Nc2ncc(F)c(Nc3ccc4c(n3)N(COP(=O)(O)O)C(=O)C(C)(C)O4)n2)cc(OC)c1OC` [R788, fostamatinib], the “level of H cells (percentage of leukemic cells)” value in series [7] (seven days of treatment, oral) was “barely affecting”. Also, the survival result in series [7] (treatment for 20 days) was “No significant effect”. Also, the “reduction of the percentage of leukemic cells” value in series [8] (seven days of treatment, oral, peripheral blood YFP-positive cells, on average) is “more than 70%”. For the same compound, in series [8] (treatment for 20 days, placebo median 38 days, p<0.001), the median survival was 130 days.

For the origin of these results see patent US20200032350A1, “COMPANION DIAGNOSTICS FOR LEUKEMIA TREATMENT” (JOHANN WOLFGANG GOETHE-UNIVERSITÄT FRANKFURT AM MAIN, priority 2017, published 2020).
